Results taken from patent EP0481744B1, “Piperazine derivatives” (JOHN WYETH & BROTHER LIMITED, priority 1990, dated 1992).

How the values were obtained:
5HT1A receptor [1] = biological target: T1, 5HT1A receptor (Rattus norvegicus, UniProt P19327); experiment: 5HT1A receptor antagonism: antagonism of 8-OH DPAT syndrome in the rat; format: in vivo; parameters: (8-OH DPAT) syndrome in the rat; from tissue; host or cells: whole animal (rat), in vivo; conditions: antagonism of 8-hydroxy-2-(di-n-propylamino)-tetralin (8-OH DPAT) syndrome in the rat; s.c.
T1 sequence (P19327 1-422): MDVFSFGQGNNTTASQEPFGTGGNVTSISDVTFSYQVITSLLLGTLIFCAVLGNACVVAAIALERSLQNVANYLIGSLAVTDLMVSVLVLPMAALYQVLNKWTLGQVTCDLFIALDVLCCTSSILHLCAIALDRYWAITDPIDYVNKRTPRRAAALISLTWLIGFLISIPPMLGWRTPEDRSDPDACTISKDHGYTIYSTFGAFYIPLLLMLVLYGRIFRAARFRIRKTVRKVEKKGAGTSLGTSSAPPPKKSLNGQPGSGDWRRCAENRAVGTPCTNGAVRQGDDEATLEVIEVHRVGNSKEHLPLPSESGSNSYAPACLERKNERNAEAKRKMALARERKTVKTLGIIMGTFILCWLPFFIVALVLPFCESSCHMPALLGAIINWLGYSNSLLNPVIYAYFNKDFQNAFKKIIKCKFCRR
Method: The compounds were also tested for 5HT1A receptor antagonism activity in a test involving the antagonism of 8-hydroxy-2-(di-n-propylamino)-tetralin (8-OH DPAT) syndrome in the rat. The results are given below

5HT1A receptor [2] = biological target: T1, 5HT1A receptor; experiment: 5-HT1A receptor binding activity in rat hippocampal membrane homogenate; parameters: rat hippocampal membrane homogenate; from tissue; host or cells: rat hippocampus (membrane homogenate)
Method: The compounds of the invention were tested for 5-HT1A receptor binding activity in rat hippocampal membrane homogenate by the method of B S Alexander and M D Wood, J Pharm Pharmacol, 1988, 40, 888-891.

[3] = system: mouse exploratory activity; experiment: Potential anxiolytic activity: mouse exploratory activity in a two-compartment light/dark box; format: in vivo; conditions: s.c.
Method: The compounds were also tested for potential anxiolytic activity by a test procedure measuring mouse exploratory activity in a two-compartment light/dark box based upon the procedure of B Costall et al, Neuropharmacology, 1987, 26, 195-200 and J.N. Crawley et al, Pharmac. Biochem. Behav. 1980, 13, 167-170. The results are given below

Compound: COc1ccccc1N1CCN(CCC(C(=O)N2CCCCCC2)c2ccccc2)CC1 (stereo not drawn) [Compound A, 2,3,4,5,6,7-hexahydro-1-{4-[1-[4-(2-methoxyphenyl)-piperazinyl]]-2-phenylbutyryl}-1H-azepine]
- MED (5HT1A receptor [1]): 0.03 mg/kg; s.c.
- IC50 (5HT1A receptor [2]): 3 nM
- MED [3]: 0.03 mg/kg; s.c.

Compound: COc1ccccc1N1CCN(CCC(C(=O)N2CCCCCC2)c2ccccc2)CC1 (single isomer, unassigned) [Compound C, 2,3,4,5,6,7-Hexahydro-1-⁅4-[1-[4-(2-methoxyphenyl)-piperazinyl]]-2-phenylbutyryl⁆-1H-azepine]
- IC50 (5HT1A receptor [2]): 1 nM

Compound: COc1ccccc1N1CCN(CC(C(=O)N2CCCCCC2)c2ccccc2)CC1 (stereo not drawn) [Compound B, 2,3,4,5,6,7-hexahydro-1-⁅3-⁅1-[4-(2-methoxyphenyl)piperazinyl]⁆-2-phenylpropionyl⁆-1H-azepine, reference compound]
- MED (5HT1A receptor [1]): 0.3 mg/kg; s.c.
- MED [3]: 1 mg/kg; s.c.
